Results: ChEMBL document CHEMBL2424566, “Preparation of betulinic acid derivatives by chemical and biotransformation methods and determination of cytotoxicity against selected cancer cell lines” (Eur J Med Chem, 2013)
Active and inactive are the calls of the source. No cut-off for these calls is given here.

Experiments:
A2780 [1] = assay: Cytotoxicity against human A2780 cells assessed as cell viability after 96 hrs by SRB assay; type: functional, cell-based; conditions: A2780, 96 h
MCF7 [2] = assay: Cytotoxicity against human MCF7 cells assessed as cell viability after 96 hrs by SRB assay; type: functional, cell-based; conditions: MCF7, 96 h
A549 [3] = assay: Cytotoxicity against human A549 cells assessed as cell viability after 96 hrs by SRB assay; type: functional, cell-based; conditions: A549, 96 h
8505C = assay: Cytotoxicity against human 8505C cells assessed as cell viability after 96 hrs by SRB assay; type: functional, cell-based
[4] = Cytotoxicity against human 518A2 cells assessed as cell viability after 96 hrs by SRB assay; type: functional, cell-based; conditions: 518A2, 96 h
A549 [5] = assay: Cell cycle arrest in human A549 cells assessed as accumulation at subG1 phase at IC80 after 48 hrs by propidium iodide staining-based flow cytometric analysis (3.23 +/- 0.25%); type: functional
A549 [6] = assay: Cell cycle arrest in human A549 cells assessed as accumulation at G0/G1 phase at IC80 by propidium iodide staining-based flow cytometric analysis; type: functional; conditions: TDE = time-dependent effect
A549 [7] = assay: Induction of apoptosis in human A549 cells assessed as early apoptosis and secondary necrosis at IC80 after 24 hrs by annexin V-FITC staining-based flow cytometric analysis relative to control; type: functional
A549 [8] = assay: Cell cycle arrest in human A549 cells assessed as accumulation at G2/M phase at IC80 after 48 hrs by propidium iodide staining-based flow cytometric analysis (26 +/- 1.1%); type: functional
A549 [9] = assay: Induction of apoptosis in human A549 cells assessed as chromatin condensation at IC80 after 24 hrs by acridine orange/ethidium bromide staining-based fluorescence microscopic analysis; type: functional, cell-based
A549 [10] = assay: Cell cycle arrest in human A549 cells assessed as accumulation at subG1 phase at IC80 after 24 hrs by propidium iodide staining-based flow cytometric analysis (2.73 +/- 0.49%); type: functional
A549 [11] = assay: Cell cycle arrest in human A549 cells assessed as accumulation at G2/M phase at IC80 after 24 hrs by propidium iodide staining-based flow cytometric analysis (24.9 +/- 1.46%); type: functional
A549 [12] = assay: Cell cycle arrest in human A549 cells assessed as accumulation at subG1 phase at IC80 by propidium iodide staining-based flow cytometric analysis; type: functional; conditions: TDE = time-dependent effect
A549 [13] = assay: Cell cycle arrest in human A549 cells assessed as accumulation at G2/M phase at IC80 by propidium iodide staining-based flow cytometric analysis; type: functional; conditions: TDE = time-dependent effect
A549 [14] = assay: Induction of apoptosis in human A549 cells assessed as membrane blebbing at IC80 after 24 hrs by acridine orange/ethidium bromide staining-based fluorescence microscopic analysis; type: functional, cell-based
A549 [15] = assay: Induction of apoptosis in human A549 cells assessed as early apoptosis and secondary necrosis at IC80 after 48 hrs by annexin V-FITC staining-based flow cytometric analysis relative to control; type: functional
[16] = Cytotoxicity against human CCD-18Co cells assessed as cell viability after 96 hrs by SRB assay; type: cell-based
A549 [17] = assay: Induction of apoptosis in human A549 cells assessed as DNA fragmentation at IC80 after 24 hrs by acridine orange/ethidium bromide staining-based fluorescence microscopic analysis; type: functional, cell-based
A549 [18] = assay: Cell cycle arrest in human A549 cells assessed as accumulation at S phase at IC80 after 24 hrs by propidium iodide staining-based flow cytometric analysis (20.2 +/- 0.81%); type: functional
A549 [19] = assay: Cell cycle arrest in human A549 cells assessed as accumulation at S phase at IC80 by propidium iodide staining-based flow cytometric analysis; type: functional; conditions: TDE = time-dependent effect
A549 [20] = assay: Cell cycle arrest in human A549 cells assessed as accumulation at G0/G1 phase at IC80 after 24 hrs by propidium iodide staining-based flow cytometric analysis (49.5 +/- 2.51%); type: functional
A549 [21] = assay: Cell cycle arrest in human A549 cells assessed as accumulation at G0/G1 phase at IC80 after 48 hrs by propidium iodide staining-based flow cytometric analysis (48.5 +/- 1.82%); type: functional
A549 [22] = assay: Induction of apoptosis in human A549 cells assessed as apoptotic bodies at IC80 after 24 hrs by acridine orange/ethidium bromide staining-based fluorescence microscopic analysis; type: functional, cell-based
A549 [23] = assay: Cell cycle arrest in human A549 cells assessed as accumulation at S phase at IC80 after 48 hrs by propidium iodide staining-based flow cytometric analysis (19.1 +/- 1.05%); type: functional
[24] = Selectivity index, ratio of IC50 for human CCD-18Co cells to IC50 for human 8505C cells; type: functional, 8505C;CCD-18Co
MCF7 [25] = assay: Selectivity index, ratio of IC50 for human CCD-18Co cells to IC50 for human MCF7 cells; type: functional
A2780 [26] = assay: Selectivity index, ratio of IC50 for human CCD-18Co cells to IC50 for human A2780 cells; type: functional
A549 [27] = assay: Selectivity index, ratio of IC50 for human CCD-18Co cells to IC50 for human A549 cells; type: functional
[28] = Selectivity index, ratio of IC50 for human CCD-18Co cells to IC50 for human 518A2 cells; type: functional
A549 [29] = assay: Induction of apoptosis in human A549 cells assessed as occurrence of typical DNA ladders at IC80 after 72 hrs by agarose gel electrophoresis; type: functional, cell-based

Structure (SMILES) | IC50 (A2780 [1]) | IC50 (MCF7 [2]) | IC50 (A549 [3]) | IC50 (8505C) | IC50 [4] | Activity (A549 [9]) | Activity (A549 [14]) | IC50 [16] | Activity (A549 [17]) | Activity (A549 [22]) | further results
C=C(C)[C@@H]1CC[C@]2(C(=O)OC)CC[C@]3(C)[C@H](CC[C@@H]4[C@@]5(C)CC[C@H](O)C(C)(C)[C@@H]5CC[C@]43C)[C@@H]12 [METHYL BETULINATE] | 16.3 µM | 16.9 µM | 17.2 µM | 17.2 µM | 16.9 µM |  |  |  |  |  | 
C=C(C)[C@@H]1CC[C@]2(C(=O)O)CC[C@]3(C)[C@H](CC[C@@H]4[C@@]5(C)CCC(=O)C(C)(C)[C@@H]5CC[C@]43C)[C@@H]12 [BETUNOLIC ACID] | 5.97 µM |  | 10.4 µM | 14 µM | 12.9 µM |  |  |  |  |  | 
C=C(C)[C@@H]1CC[C@]2(C(=O)O)CC[C@]3(C)[C@H](CC[C@@H]4[C@@]5(C)CC[C@H](O)C(C)(C)[C@@H]5CC[C@]43C)[C@@H]12 [BETULINIC ACID] | 8.75 µM | 14 µM | 13.3 µM | 12.6 µM | 14.8 µM | Active | Active | 43.6 µM | Active | Active | Activity (A549 [5]): 98.5%; Activity (A549 [6]): tde; Activity (A549 [7]): 32%; Activity (A549 [8]): 0.17%; Activity (A549 [10]): 18.8%; Activity (A549 [11]): 20.1%; Activity (A549 [12]): tde; Activity (A549 [13]): tde; Activity (A549 [15]): >50%; Activity (A549 [18]): 20.1%; Activity (A549 [19]): tde; Activity (A549 [20]): 36.7%; Activity (A549 [21]): 0.96%; Activity (A549 [23]): 0.33%
C/C(=N\Nc1ccc([N+](=O)[O-])cc1[N+](=O)[O-])[C@@H]1CC[C@]2(C(=O)O)CC[C@]3(C)[C@H](CC[C@@H]4[C@@]5(C)CC[C@H](O)C(C)(C)[C@@H]5CC[C@]43C)[C@@H]12 | 11.3 µM | 6.84 µM | 7.62 µM | 8.72 µM | 9.09 µM | Active | Active | 56.7 µM | Active | Active | Ratio IC50 [24]: 5; Ratio IC50 (MCF7 [25]): 5; Ratio IC50 (A2780 [26]): 5; Ratio IC50 (A549 [27]): 5; Ratio IC50 [28]: 5
CC(=O)[C@@H]1CC[C@]2(C(=O)O)CC[C@]3(C)[C@H](CC[C@@H]4[C@@]5(C)CC[C@H](O)C(C)(C)[C@@H]5CC[C@]43C)[C@@H]12 [PLATANIC ACID] | 68 µM | 63.2 µM | 75.4 µM | 93.6 µM | 97.5 µM |  |  |  |  |  | 
C[C@@H](C=O)[C@@H]1CC[C@]2(C(=O)O)CC[C@]3(C)[C@H](CC[C@@H]4[C@@]5(C)CC/C(=N\Nc6ccc([N+](=O)[O-])cc6[N+](=O)[O-])C(C)(C)[C@@H]5CC[C@]43C)[C@@H]12 | 1.76 µM | 2.51 µM | 1.79 µM | 2.44 µM | 1.91 µM | Active | Active | 8.3 µM | Active | Active | Activity (A549 [5]): 18.3%; Activity (A549 [6]): tde; Ratio IC50 [24]: 3; Activity (A549 [7]): 12%; Activity (A549 [8]): 15.9%; Ratio IC50 (MCF7 [25]): 3; Activity (A549 [10]): 8.77%; Activity (A549 [11]): 13.9%; Ratio IC50 (A2780 [26]): 3; Activity (A549 [12]): tde; Activity (A549 [13]): tde; Activity (A549 [15]): 8%; Ratio IC50 (A549 [27]): 3; Activity (A549 [18]): 14.8%; Activity (A549 [19]): tde; Activity (A549 [20]): 60.9%; Activity (A549 [21]): 49.7%; Activity (A549 [23]): 14.6%; Activity (A549 [29]): Active; Ratio IC50 [28]: 3
CC(=O)[C@@H]1CC[C@]2(C(=O)O)CC[C@]3(C)[C@H](CC[C@@H]4[C@@]5(C)CC/C(=N\Nc6ccc([N+](=O)[O-])cc6[N+](=O)[O-])C(C)(C)[C@@H]5CC[C@]43C)[C@@H]12 | 9.1 µM | 7.52 µM | 12.1 µM | 16.9 µM | 14.6 µM | Active | Active | 43.5 µM | Active | Active | 
C=C(C)[C@@H]1CC[C@]2(C(=O)OC)CC[C@]3(C)[C@H](CC[C@@H]4[C@@]5(C)CC/C(=N\Nc6ccc([N+](=O)[O-])cc6[N+](=O)[O-])C(C)(C)[C@@H]5CC[C@]43C)[C@@H]12 | > 100 µM | > 100 µM | > 100 µM | > 100 µM | > 100 µM |  |  |  |  |  | 
C/C(=N/O)[C@@H]1CC[C@]2(C(=O)O)CC[C@]3(C)[C@H](CC[C@@H]4[C@@]5(C)CC[C@H](O)C(C)(C)[C@@H]5CC[C@]43C)[C@@H]12 | 54.4 µM | 52.2 µM | 53.7 µM | 55.9 µM | 63.2 µM |  |  |  |  |  | 
C/C(=N\Nc1ccc([N+](=O)[O-])cc1[N+](=O)[O-])[C@@H]1CC[C@]2(C(=O)O)CC[C@]3(C)[C@H](CC[C@@H]4[C@@]5(C)CC/C(=N\Nc6ccc([N+](=O)[O-])cc6[N+](=O)[O-])C(C)(C)[C@@H]5CC[C@]43C)[C@@H]12 | 53.8 µM | 60.2 µM | > 100 µM | > 100 µM | > 100 µM |  |  |  |  |  | 
C=C(C)[C@@H]1CC[C@]2(C(=O)OCc3ccccc3)CC[C@]3(C)[C@H](CC[C@@H]4[C@@]5(C)CC/C(=N\Nc6ccc([N+](=O)[O-])cc6[N+](=O)[O-])C(C)(C)[C@@H]5CC[C@]43C)[C@@H]12 | 66.7 µM | > 100 µM | > 100 µM | > 100 µM | > 100 µM |  |  |  |  |  | 
C[C@H](C=O)[C@@H]1CC[C@]2(C(=O)O)CC[C@]3(C)[C@H](CC[C@@H]4[C@@]5(C)CC/C(=N\Nc6ccc([N+](=O)[O-])cc6[N+](=O)[O-])C(C)(C)[C@@H]5CC[C@]43C)[C@@H]12 | 1.81 µM | 2.41 µM | 2 µM | 2.17 µM | 1.76 µM |  |  |  |  |  | 
C[C@@H](C=O)[C@@H]1CC[C@]2(C(=O)O)CC[C@]3(C)[C@H](CC[C@@H]4[C@@]5(C)CCC(O)C(C)(C)[C@@H]5CC[C@]43C)[C@@H]12 (stereo partly specified) | 50.3 µM | 44.4 µM | 46.9 µM | 55.2 µM | 52.9 µM |  |  |  |  |  | 
C=C(C)[C@@H]1CC[C@]2(C(=O)O)CC[C@]3(C)[C@H](CC[C@@H]4[C@@]5(C)CC/C(=N\Nc6ccc([N+](=O)[O-])cc6[N+](=O)[O-])C(C)(C)[C@@H]5CC[C@]43C)[C@@H]12 | 6.22 µM | 8.17 µM | 21.4 µM | 25.9 µM | 13.5 µM | Active | Active | 18.1 µM | Active | Active | Ratio IC50 (MCF7 [25]): 1; Ratio IC50 (A2780 [26]): 1; Ratio IC50 [28]: 1
CC(=O)[C@@H]1CC[C@]2(C(=O)O)CC[C@]3(C)[C@H](CC[C@@H]4[C@@]5(C)CCC(=O)C(C)(C)[C@@H]5CC[C@]43C)[C@@H]12 | 16.1 µM | 47.1 µM | 59.1 µM | 64.1 µM | 43.5 µM |  |  |  |  |  | 
C=C(C)[C@@H]1CC[C@]2(C(=O)OC)CC[C@]3(C)[C@H](CC[C@@H]4[C@@]5(C)CCC(=O)C(C)(C)[C@@H]5CC[C@]43C)[C@@H]12 [METHYL BETULONATE] | 36.2 µM | 98.1 µM | > 100 µM | > 100 µM | 68 µM |  |  |  |  |  | 
